“And” between values parts separate entries of the source, which are not always exact repeats. Identical values can stand only once. Like-named read-outs stand apart in the source and are kept apart here.
What was measured:
Format in all cases: cell-based
Pyrenophora Graminea = experiment: Activity against Pyrenophora Graminea (growth inhibition in PDB, microtiter plate, photometric); conditions: 72 hrs
Fusarium Graminearum = conditions: 48 hrs
Gäumannomyces Graminis = experiment: Activity Against Gäumannomyces Graminis (growth inhibition in PDB, microtiter plate, photometric); conditions: 72 hrs
Pythium Ultimum = experiment: Activity against Pythium Ultimum (growth inhibition in PDB, microtiter plate, photometric); conditions: 48 hrs
Rhizoctonia Solani = experiment: Activity against Rhizoctonia Solani (growth inhibition in PDB, microtiter plate, photometric); conditions: 48 hrs
[1] = 0.0039 ppm (mg active ingredient/liter final medium)
[2] = 0.0078 ppm (mg active ingredient/liter final medium)
[3] = 0.03125 ppm (mg active ingredient/liter final medium)
[4] = 0.0625 ppm (mg active ingredient/liter final medium)
[5] = 0.125 ppm (mg active ingredient/liter final medium)
[6] = 1.0 ppm (mg active ingredient/liter final medium)
[7] = 0.25 ppm (mg active ingredient/liter final medium)
[8] = 0.5 ppm (mg active ingredient/liter final medium)

Which “Observed control in % (% Cobs)” value (Pyrenophora Graminea; 0.002 ppm (mg active ingredient/liter final medium)) does the source give for `Cn1cc(C(=O)Nc2ccccc2C2CC2C2CC2)c(C(F)F)n1` (racemic) [Cpd A] here?
The value was 0%.

What about the “Observed control in % (% Cobs)” value (Pyrenophora Graminea; [1]) of the same compound?
Its value is 1.3% and 3.3%.

And the “Observed control in % (% Cobs)” value (Pyrenophora Graminea; [2])?
Its value is 0%.

What about the “Observed control in % (% Cobs)” value (Pyrenophora Graminea; 0.0156 ppm (mg active ingredient/liter final medium)) of the same compound?
The value was 0%.

And the “Observed control in % (% Cobs)” value (Pyrenophora Graminea; [3])?
Its value is 0% and 5.8%.

And the “Observed control in % (% Cobs)” value (Pyrenophora Graminea; [4])?
The value was 4.0%.

And the “Observed control in % (% Cobs)” value (Pyrenophora Graminea; [5])?
The value was 0%.

What about the “Observed control in % (% Cobs)” value (Pyrenophora Graminea; [6]) of the same compound?
The value was 0%.

What about the “Observed control in % (% Cobs)” value (Fusarium Graminearum; [3]) of the same compound?
Its value is 0%.

And the “Observed control in % (% Cobs)” value (Fusarium Graminearum; [4])?
Its value is 2.0% and 4.2%.

And the “Observed control in % (% Cobs)” value (Fusarium Graminearum; [5])?
The value was 3.5%.

And the “Observed control in % (% Cobs)” value (Fusarium Graminearum; [7])?
Its value is 10.5% and 4.0%.

What about the “Observed control in % (% Cobs)” value (Fusarium Graminearum; [8]) of the same compound?
Its value is 9.3%.

And the “Observed control in % (% Cobs)” value (Fusarium Graminearum; [6])?
The value was 6.6% and 5.8%.

And the “Observed control in % (% Cobs)” value (Gäumannomyces Graminis; [5])?
Its value is 0%.

And the “Observed control in % (% Cobs)” value (Gäumannomyces Graminis; [8])?
The value was 0%.

What about the “Observed control in % (% Cobs)” value (Gäumannomyces Graminis; [6]) of the same compound?
Its value is 19.4%.

And the “Observed control in % (% Cobs)” value (Pythium Ultimum; [1])?
Its value is 0%.

What about the “Observed control in % (% Cobs)” value (Pythium Ultimum; [2]) of the same compound?
The value was 0%.

And the “Observed control in % (% Cobs)” value (Pythium Ultimum; [3])?
The value was 0%.

And the “Observed control in % (% Cobs)” value (Rhizoctonia Solani; [4])?
Its value is 0%.

What about the “Observed control in % (% Cobs)” value (Rhizoctonia Solani; [5]) of the same compound?
The value was 22.8% and 23.0% and 29.3% and 40.2%.

And the “Observed control in % (% Cobs)” value (Rhizoctonia Solani; [7])?
Its value is 73.2%.

Source: patent US7807714B2, “Fungicidal compositions” (Syngenta Crop Protection, Inc., priority 2006, dated 2010)
